Legend:
Test in all cases: relative viability (nuclei count vs DMSO), 5 days (fraction); higher = more cells survive
[1] = compound: CN(c1ncccc1CNc1nc(Nc2ccc3c(c2)CC(=O)N3)ncc1C(F)(F)F)S(C)(=O)=O
Summary of the method: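 Viability here means nuclei in treated wells divided by nuclei in vehicle wells, reported as the median across plates. Only plates with control CV below 25% and at least one doubling passed. Lung cancer cell lines in 1536-well plates were exposed to five √10-spaced library-drug doses for 5 days and counted from 4× Hoechst images in MetaXpress.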

[2] = compound: CN(c1ncccc1CNc1nc(Nc2ccc3c(c2)CC(=O)N3)ncc1C(F)(F)F)S(C)(=O)=O + CC(C)C[C@H](NC(=O)[C@H](Cc1ccccc1)NC(=O)c1cnccn1)B(O)O [Bortezomib] (partner 0.002 µM)
Summary of the method: (§1)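 Cells from lung cancer lines were seeded into 1536-well plates and, one day later, dosed by pin tool. Treatments were either a single drug or a fixed dose of an anchor drug with five library-drug doses (not always all listed) in √10 steps. After 5 days, nuclei were stained in a one-step fixation (final 0.05% Triton X-100, 1% formaldehyde, 1 ug/ml Hoechst) and counted on 4× images, and relative viability is the treated-to-vehicle nuclei ratio, as the median of duplicate plates.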

[3] = compound: CN(c1ncccc1CNc1nc(Nc2ccc3c(c2)CC(=O)N3)ncc1C(F)(F)F)S(C)(=O)=O + O=C(c1cc(Cc2n[nH]c(=O)c3ccccc23)ccc1F)N1CCN(C(=O)C2CC2)CC1 [Olaparib] (partner 8 µM)
Summary of the method: as §1

[4] = compound: CN(c1ncccc1CNc1nc(Nc2ccc3c(c2)CC(=O)N3)ncc1C(F)(F)F)S(C)(=O)=O + CS(=O)(=O)CCNCc1ccc(-c2ccc3ncnc(Nc4ccc(OCc5cccc(F)c5)c(Cl)c4)c3c2)o1 [Lapatinib] (partner 2 µM)
Summary of the method: as §1

[5] = compound: CN(c1ncccc1CNc1nc(Nc2ccc3c(c2)CC(=O)N3)ncc1C(F)(F)F)S(C)(=O)=O + COc1cc2c(Oc3ccc(NC(=O)C4(C(=O)Nc5ccc(F)cc5)CC4)cc3F)ccnc2cc1OCCCN1CCOCC1 [Foretinib] (partner 0.25 µM)
Summary of the method: as §1

[6] = compound: CN(c1ncccc1CNc1nc(Nc2ccc3c(c2)CC(=O)N3)ncc1C(F)(F)F)S(C)(=O)=O + C[C@@H](Oc1cc(-c2cnn(C3CCNCC3)c2)cnc1N)c1c(Cl)ccc(F)c1Cl [Crizotinib] (partner 1 µM)
Summary of the method: as §1

[7] = compound: CN(c1ncccc1CNc1nc(Nc2ccc3c(c2)CC(=O)N3)ncc1C(F)(F)F)S(C)(=O)=O + CC1(C)CCC(c2ccc(Cl)cc2)=C(CN2CCN(c3ccc(C(=O)NS(=O)(=O)c4ccc(N[C@H](CCN5CCOCC5)CSc5ccccc5)c(S(=O)(=O)C(F)(F)F)c4)cc3)CC2)C1 [Navitoclax] (partner 0.5 µM)
Summary of the method: as §1

[8] = compound: CN(c1ncccc1CNc1nc(Nc2ccc3c(c2)CC(=O)N3)ncc1C(F)(F)F)S(C)(=O)=O + C[C@]1(O)C[C@@H](c2nc(-c3ccc4ccc(-c5ccccc5)nc4c3)c3c(N)nccn32)C1 [Linsitinib] (partner 1 µM)
Summary of the method: as §1

[9] = compound: CN(c1ncccc1CNc1nc(Nc2ccc3c(c2)CC(=O)N3)ncc1C(F)(F)F)S(C)(=O)=O + Cc1nc(NC(=O)N2CCC[C@H]2C(N)=O)sc1-c1ccnc(C(C)(C)C(F)(F)F)c1 [Alpelisib] (partner 2 µM)
Summary of the method: as §1

[10] = compound: CN(c1ncccc1CNc1nc(Nc2ccc3c(c2)CC(=O)N3)ncc1C(F)(F)F)S(C)(=O)=O + CS(=O)(=O)N1CCN(Cc2cc3nc(-c4cccc5[nH]ncc45)nc(N4CCOCC4)c3s2)CC1 [Pictilisib] (partner 1 µM)
Summary of the method: as §1

[11] = compound: CN(c1ncccc1CNc1nc(Nc2ccc3c(c2)CC(=O)N3)ncc1C(F)(F)F)S(C)(=O)=O + N=C(N)NC(=N)NCCc1ccccc1 [Phenformin] (partner 250 µM)
Summary of the method: as §1

[12] = compound: CN(c1ncccc1CNc1nc(Nc2ccc3c(c2)CC(=O)N3)ncc1C(F)(F)F)S(C)(=O)=O + Nc1ncn([C@H]2C[C@H](O)[C@@H](CO)O2)c(=O)n1 [Decitabine] (partner 2 µM)
Summary of the method: as §1

Calu-6
relative viability ([1]; 0.01 µM): 1.06
relative viability ([1]; 0.03162 µM): 0.99
relative viability ([1]; 0.1 µM): 0.945
relative viability ([1]; 0.3162 µM): 0.961
relative viability ([1]; 1 µM): 0.863
relative viability ([2]; first compound 0.01 µM): 1.04
relative viability ([2]; first compound 0.03162 µM): 1.01
relative viability ([2]; first compound 0.1 µM): 1.02
relative viability ([2]; first compound 0.3162 µM): 0.958
relative viability ([2]; first compound 1 µM): 0.874
relative viability ([3]; first compound 0.01 µM): 0.581
relative viability ([3]; first compound 0.03162 µM): 0.581
relative viability ([3]; first compound 0.1 µM): 0.535
relative viability ([3]; first compound 0.3162 µM): 0.498
relative viability ([3]; first compound 1 µM): 0.453
relative viability ([4]; first compound 0.01 µM): 1.05
relative viability ([4]; first compound 0.03162 µM): 1.12
relative viability ([4]; first compound 0.1 µM): 1
relative viability ([4]; first compound 0.3162 µM): 1
relative viability ([4]; first compound 1 µM): 0.912
relative viability ([5]; first compound 0.01 µM): 0.936
relative viability ([5]; first compound 0.03162 µM): 0.989
relative viability ([5]; first compound 0.1 µM): 0.808
relative viability ([5]; first compound 0.3162 µM): 0.955
relative viability ([5]; first compound 1 µM): 0.812
relative viability ([6]; first compound 0.01 µM): 0.809
relative viability ([6]; first compound 0.03162 µM): 0.828
relative viability ([6]; first compound 0.1 µM): 0.774
relative viability ([6]; first compound 0.3162 µM): 0.725
relative viability ([6]; first compound 1 µM): 0.546
relative viability ([7]; first compound 0.01 µM): 0.848
relative viability ([7]; first compound 0.03162 µM): 0.863
relative viability ([7]; first compound 0.1 µM): 0.78
relative viability ([7]; first compound 0.3162 µM): 0.777
relative viability ([7]; first compound 1 µM): 0.772
relative viability ([8]; first compound 0.01 µM): 1.05
relative viability ([8]; first compound 0.03162 µM): 0.992
relative viability ([8]; first compound 0.1 µM): 0.892
relative viability ([8]; first compound 0.3162 µM): 0.955
relative viability ([8]; first compound 1 µM): 0.914
relative viability ([9]; first compound 0.01 µM): 0.914
relative viability ([9]; first compound 0.03162 µM): 0.977
relative viability ([9]; first compound 0.1 µM): 0.903
relative viability ([9]; first compound 0.3162 µM): 1.55
relative viability ([9]; first compound 1 µM): 0.765
relative viability ([10]; first compound 0.01 µM): 0.926
relative viability ([10]; first compound 0.03162 µM): 0.986
relative viability ([10]; first compound 0.1 µM): 0.929
relative viability ([10]; first compound 0.3162 µM): 0.874
relative viability ([10]; first compound 1 µM): 0.845

A549
relative viability ([1]; 0.01 µM): 1.04
relative viability ([1]; 0.03162 µM): 1.17
relative viability ([1]; 0.1 µM): 0.922
relative viability ([1]; 0.3162 µM): 0.95
relative viability ([1]; 1 µM): 0.95
relative viability ([3]; first compound 0.01 µM): 0.29
relative viability ([3]; first compound 0.03162 µM): 0.367
relative viability ([3]; first compound 0.1 µM): 0.352
relative viability ([3]; first compound 0.3162 µM): 0.464
relative viability ([3]; first compound 1 µM): 0.373
relative viability ([4]; first compound 0.01 µM): 1
relative viability ([4]; first compound 0.03162 µM): 1.06
relative viability ([4]; first compound 0.1 µM): 0.971
relative viability ([4]; first compound 0.3162 µM): 0.928
relative viability ([4]; first compound 1 µM): 0.915
relative viability ([5]; first compound 0.01 µM): 0.995
relative viability ([5]; first compound 0.03162 µM): 0.948
relative viability ([5]; first compound 0.1 µM): 0.958
relative viability ([5]; first compound 0.3162 µM): 0.945
relative viability ([5]; first compound 1 µM): 0.933
relative viability ([6]; first compound 0.01 µM): 0.762
relative viability ([6]; first compound 0.03162 µM): 0.799
relative viability ([6]; first compound 0.1 µM): 0.803
relative viability ([6]; first compound 0.3162 µM): 0.797
relative viability ([6]; first compound 1 µM): 0.526
relative viability ([11]; first compound 0.01 µM): 0.189
relative viability ([11]; first compound 0.03162 µM): 0.205
relative viability ([11]; first compound 0.1 µM): 0.173
relative viability ([11]; first compound 0.3162 µM): 0.133
relative viability ([11]; first compound 1 µM): 0.152
relative viability ([7]; first compound 0.01 µM): 1.19
relative viability ([7]; first compound 0.03162 µM): 1.07
relative viability ([7]; first compound 0.1 µM): 1.26
relative viability ([7]; first compound 0.3162 µM): 1.13
relative viability ([7]; first compound 1 µM): 1.1
relative viability ([8]; first compound 0.01 µM): 0.526
relative viability ([8]; first compound 0.03162 µM): 0.761
relative viability ([8]; first compound 0.1 µM): 0.558
relative viability ([8]; first compound 0.3162 µM): 0.606
relative viability ([8]; first compound 1 µM): 0.694
relative viability ([12]; first compound 0.01 µM): 0.271
relative viability ([12]; first compound 0.03162 µM): 0.258
relative viability ([12]; first compound 0.1 µM): 0.285
relative viability ([12]; first compound 0.3162 µM): 0.257
relative viability ([12]; first compound 1 µM): 0.257
relative viability ([9]; first compound 0.01 µM): 0.754
relative viability ([9]; first compound 0.03162 µM): 0.905
relative viability ([9]; first compound 0.1 µM): 0.726
relative viability ([9]; first compound 0.3162 µM): 0.906
relative viability ([9]; first compound 1 µM): 0.712
relative viability ([10]; first compound 0.01 µM): 0.474
relative viability ([10]; first compound 0.03162 µM): 0.63
relative viability ([10]; first compound 0.1 µM): 0.569
relative viability ([10]; first compound 0.3162 µM): 0.452
relative viability ([10]; first compound 1 µM): 0.409
